In patent publication US10336732B2, “1-heterocyclyl isochromanyl compounds and analogs for treating CNS disorders” (Sunovion Pharmaceuticals Inc., priority 2015, dated 2019):

These molecules were tested on mice (assay: Neuropharmacological assay (SmartCube), behavioral signature of compound-treated mice). Details: i.p. 15 min before behavioral test, most efficacious dose(s) of 3 doses.
Type: in vivo
Procedure, shortened: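 Read-out is an automated video-based behavioral signature, scored as per-class probabilities (e.g., anxiolytic, antidepressant) against reference compounds. Dosing was i.p. at three doses, 15 min pre-test, in NMP, polyethylene glycol and propylene glycol. Values shown are from the most efficacious dose(s).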

Compound | AD: ADHD (probability that behavioral signature matches class) | AG: analgesic (probability that behavioral signature matches class) | AX: anxiolytic (probability that behavioral signature matches class) | CE: cognitive enhancer (probability that behavioral signature matches class) | DP: anti-depressant (probability that behavioral signature matches class) | HA: hallucinogen (probability that behavioral signature matches class) | MS: mood stabilizer (probability that behavioral signature matches class) | PS: anti-psychotic (probability that behavioral signature matches class) | SD: sedative hypnotic (probability that behavioral signature matches class) | UN: uncharacterized CNS activity (probability that behavioral signature matches class)
Fc1ccc2c(c1)CCO[C@H]2[C@@H]1CCCN1 [Compound I-9, (S)-2-((R)-6-fluoroisochroman-1-yl)pyrrolidine] | + (LOQ ≤ + <5%) | ++ (5% ≤ ++ <25%) | ++ (5% ≤ ++ <25%) | ++ (5% ≤ ++ <25%) | ++ (5% ≤ ++ <25%) | + (LOQ ≤ + <5%) | ++ (5% ≤ ++ <25%) | +++ (25% ≤ +++ <50%) | ++ (5% ≤ ++ <25%) | +++ (25% ≤ +++ <50%)
Fc1ccc2c(c1)[C@H]([C@@H]1CCCN1)OCC2 [Compound I-5, (2S)-2-((R)-7-fluoroisochroman-1-yl)pyrrolidine] | + (LOQ ≤ + <5%) | ++ (5% ≤ ++ <25%) | ++ (5% ≤ ++ <25%) | ++ (5% ≤ ++ <25%) | ++ (5% ≤ ++ <25%) | + (LOQ ≤ + <5%) | ++ (5% ≤ ++ <25%) | +++ (25% ≤ +++ <50%) | + (LOQ ≤ + <5%) | +++ (25% ≤ +++ <50%)
Fc1ccc2c(c1)CCO[C@H]2[C@@H]1CCN1 [Compound I-90, (S)-2-((R)-6-fluoroisochroman-1-yl)azetidine] | + (LOQ ≤ + <5%) | ++ (5% ≤ ++ <25%) | +++ (25% ≤ +++ <50%) | ++ (5% ≤ ++ <25%) | +++ (25% ≤ +++ <50%) | + (LOQ ≤ + <5%) | + (LOQ ≤ + <5%) | ++ (5% ≤ ++ <25%) | ++ (5% ≤ ++ <25%) | ++ (5% ≤ ++ <25%)
Fc1cccc2c1CCO[C@@H]2[C@H]1CCN1 [Compound I-96, (R)-2-((S)-5-fluoroisochroman-1-yl)azetidine] | + (LOQ ≤ + <5%) | +++ (25% ≤ +++ <50%) | ++ (5% ≤ ++ <25%) | ++ (5% ≤ ++ <25%) | +++ (25% ≤ +++ <50%) | + (LOQ ≤ + <5%) | ++ (5% ≤ ++ <25%) | +++ (25% ≤ +++ <50%) | + (LOQ ≤ + <5%) | + (LOQ ≤ + <5%)
Fc1cccc2c1[C@H]([C@@H]1CCCN1)OCC2 [Compound I-1, (S)-2-((R)-8-fluoroisochroman-1-yl)pyrrolidine] | + (LOQ ≤ + <5%) | ++ (5% ≤ ++ <25%) | ++ (5% ≤ ++ <25%) | ++ (5% ≤ ++ <25%) | ++ (5% ≤ ++ <25%) | + (LOQ ≤ + <5%) | ++ (5% ≤ ++ <25%) | +++ (25% ≤ +++ <50%) | ++ (5% ≤ ++ <25%) | ++ (5% ≤ ++ <25%)
Fc1cccc2c1[C@H]([C@@H]1CCN1)OCC2 [Compound I-83, (S)-2-((R)-8-fluoroisochroman-1-yl)azetidine] | ++ (5% ≤ ++ <25%) | ++ (5% ≤ ++ <25%) | ++ (5% ≤ ++ <25%) | +++ (25% ≤ +++ <50%) | ++ (5% ≤ ++ <25%) | + (LOQ ≤ + <5%) | ++ (5% ≤ ++ <25%) | +++ (25% ≤ +++ <50%) | + (LOQ ≤ + <5%) | + (LOQ ≤ + <5%)
Fc1cccc2c1CCO[C@@H]2[C@@H]1CCN1 [Compound I-94, (S)-2-((S)-5-fluoroisochroman-1-yl)azetidine] | + (LOQ ≤ + <5%) | ++ (5% ≤ ++ <25%) | ++ (5% ≤ ++ <25%) | ++ (5% ≤ ++ <25%) | +++ (25% ≤ +++ <50%) | + (LOQ ≤ + <5%) | + (LOQ ≤ + <5%) | +++ (25% ≤ +++ <50%) | + (LOQ ≤ + <5%) | ++ (5% ≤ ++ <25%)
Clc1ccc2c(c1)[C@H]([C@@H]1CCCN1)OCC2 [Compound I-29, (S)-2-((R)-7-chloroisochroman-1-yl)pyrrolidine] | + (LOQ ≤ + <5%) | ++ (5% ≤ ++ <25%) | +++ (25% ≤ +++ <50%) | +++ (25% ≤ +++ <50%) | ++ (5% ≤ ++ <25%) | + (LOQ ≤ + <5%) | ++ (5% ≤ ++ <25%) | ++ (5% ≤ ++ <25%) | + (LOQ ≤ + <5%) | ++ (5% ≤ ++ <25%)

Same assay, conditions: i.p. 15 min before behavioral test, most efficacious dose(s) of 3 doses

Compound | XG: anxiogenic (probability that behavioral signature matches class)
Fc1ccc2c(c1)CCO[C@H]2[C@@H]1CCCN1 [Compound I-9, (S)-2-((R)-6-fluoroisochroman-1-yl)pyrrolidine] | + (LOQ ≤ + <5%)
Fc1ccc2c(c1)[C@H]([C@@H]1CCCN1)OCC2 [Compound I-5, (2S)-2-((R)-7-fluoroisochroman-1-yl)pyrrolidine] | + (LOQ ≤ + <5%)
Fc1ccc2c(c1)CCO[C@H]2[C@@H]1CCN1 [Compound I-90, (S)-2-((R)-6-fluoroisochroman-1-yl)azetidine] | + (LOQ ≤ + <5%)
Fc1cccc2c1CCO[C@@H]2[C@H]1CCN1 [Compound I-96, (R)-2-((S)-5-fluoroisochroman-1-yl)azetidine] | + (LOQ ≤ + <5%)
Fc1cccc2c1[C@H]([C@@H]1CCCN1)OCC2 [Compound I-1, (S)-2-((R)-8-fluoroisochroman-1-yl)pyrrolidine] | + (LOQ ≤ + <5%)
Fc1cccc2c1[C@H]([C@@H]1CCN1)OCC2 [Compound I-83, (S)-2-((R)-8-fluoroisochroman-1-yl)azetidine] | + (LOQ ≤ + <5%)
Fc1cccc2c1CCO[C@@H]2[C@@H]1CCN1 [Compound I-94, (S)-2-((S)-5-fluoroisochroman-1-yl)azetidine] | + (LOQ ≤ + <5%)
Clc1ccc2c(c1)[C@H]([C@@H]1CCCN1)OCC2 [Compound I-29, (S)-2-((R)-7-chloroisochroman-1-yl)pyrrolidine] | + (LOQ ≤ + <5%)
